Entries after “also recorded” stand apart in the source; their conditions may differ. Where two headings read alike, the source gives them in different places. Residues, ends and D or L forms follow the SMILES beside them.
Experiments:
[1] = system: collagen biosynthesis; set-up: method as in PMID 24090916; details: single concentration of 0.5 mM; cited from earlier work
[2] = Viability of fibroblast cells, MTT assay; assay type: cell-based, Human; details: human, primary dermal fibroblast cells, 24 h, MTT, ± 2, read-out: Viability of fibroblast cells
Method: (§1) Viability of fibroblast cells was examined with the use of the MTT assay. MTT, a yellow tetrazole, is reduced to purple formazan only in living cells. Absorbance of the coloured solution was measured by a spectrophotometer.
(§2) These studies were performed on primary dermal fibroblasts cells. The cells were maintained in DMEM supplemented with 10% fetal bovine serum (FBS), 2 mM glutamin, 50 U/mL penicillin and […] streptomycin at 37 °C in a 5% CO2 incubator. For experiments, cells cultures were plated at a density of 1 × 10^6/well in six-well culture plates (Costar, St. Louis, MO, USA) in 2 mL of growth medium. Cells reached about 80% of confluency at day 2 were used for the assays.
(§3) Toxicity of the tested substances was determined using an MTT [3-(4,5-dimethylthiazol-2-yl)-2,5-diphenyltetrazolium bromide)] assay. Palmitoyl and lipoyl peptides were dissolved in DMSO (dimethyl sulfoxide), the other peptides in DMEM, and added to the cell culture medium. Simultaneously, the same concentrations of DMSO without peptides were added to cells, serving as controls. The final peptide concentrations were: 1 μM, 10 μM, and 100 μM. After 24 h incubation, the cells cultured with the tested compounds were washed with phosphate-buffered saline (PBS) and then incubated for 4 h in 2 mL of MTT solution (5 mg/mL). After removing the medium, the cells were lysed in 200 μL of DMSO with 20 μL of Sorensen’s buffer (pH 10.5, 0.1 mol/L glycine with 0.1 mol/L NaCl). The absorbance of converted dye in living cells was measured at a wavelength of 570 nm. The mean values ± SD from three independent experiments done in duplicate are presented.

[3] = system: primary dermal fibroblasts cells; test: Viability of fibroblast cells, MTT assay; assay type: cell-based, Human; details: MTT, 1-100 μM, 24 h
Method: as §1, §2, §3

[4] = biological target: T1, thrombin (Bos taurus, UniProt P00735); test: Amidolytic activity of thrombin (chromogenic substrate H-D-Phe-Pip-Arg-pNA); assay type: biochemical; details: amidolytic activity; Tris pH 8.4, 37 °C; IC50 by extrapolation using a linear plot; error 5%; read-out: IC50 Thrombin
T1 construct: purchased Lubelska Wytwórnia Szczepionek (Lublin, Poland)
Method: The determination of amidolytic activity was performed as previously described by Okada. A detailed description of the method is given below: 0.2 mL of the examined peptides (0.15 M NaCl as contro), a buffer, and 0.1 mL of enzyme solution were mixed. The final peptide concentrations were: 0.2 mM, 2 mM, and 20 mM. The mixture was incubated at 37 °C for 3 min; then the synthetic substrate solution was added in the same buffer. […] The mean values from three independent experiments done in duplicate are presented. A method error of 5% was adopted as statistical error. […] IC50 was calculated mathematically by extrapolation using a linear plot.

[5] = biological target: T2, plasmin (Homo sapiens, UniProt P00747); test: Amidolytic activity of plasmin (chromogenic substrate H-D-Val-Leu-Lys-pNA); assay type: biochemical
T2 construct: purchased Chromogenix (Milano, Italy)
Method: (§4) The determination of amidolytic activity was performed as previously described by Okada. A detailed description of the method is given below: 0.2 mL of the examined peptides (0.15 M NaCl as contro), a buffer, and 0.1 mL of enzyme solution were mixed. The final peptide concentrations were: 0.2 mM, 2 mM, and 20 mM. The mixture was incubated at 37 °C for 3 min; then the synthetic substrate solution was added in the same buffer. After 20 min of incubation, the reaction was stopped by adding 0.1 mL of 50% acetic acid and the absorbance of the released p-nitroaniline was measured at 405 nm. The mean values from three independent experiments done in duplicate are presented. A method error of 5% was adopted as statistical error. IC50 value was considered as the concentration of inhibitor that reduces absorbance by 50%, compared with absorbance measured under the same conditions without an inhibitor. IC50 was calculated mathematically by extrapolation using a linear plot. IC50 values are presented in Table 1 and Table 2, and graphically in Figure 1.
(§5) The buffers and the enzyme solutions included: • Tris buffer—0.6 mL (pH 8.8), enzyme: urokinase (50 units/mL), synthetic substrate: pyro-Glu-Gly-Arg-pNA·HCl (0.1 mL, 3 mM); • Tris buffer—0.5 mL (pH 8.4), enzyme: thrombin (1 units/mL), synthetic substrate: H-D-Phe-Pip-Arg-pNA (0.2 mL, 0.75 mM); • Tris buffer—0.5 mL (pH 7.4), enzyme: plasmin (0.4 units/mL), synthetic substrate: H-D-Val-Leu-Lys-pNA (0.2 mL, 3 mM); • Borate buffer—0.5 mL (pH 7.5), enzyme: trypsin (0.4 units/mL), synthetic substrate: Bzl-L-Arg-pNA·HCl (0.2 mL, 8 mM); • Tris buffer—0.6 mL (pH 9.0), enzyme: kallikrein (3 units/mL), synthetic substrate: H-D-Val-Leu-Arg-pNA·2HCl (0.1 mL, 75 mM); • Tris buffer—0.6 mL (pH 8.4), enzyme: t-PA ([…]), synthetic substrate: H-D-Ile-Pro-Arg-pNA (0.1 mL, 10 mM) • Tris buffer—0.6 mL (pH 9.0), enzyme: chymotrypsin (0.4 units/mL), synthetic substrate: Suc-Phe-pNA (0.2 mL, 8 mM)

[6] = system: kallikrein 7; set-up: method as in PMID 27434836; details: selectivity; cited from earlier work
[7] = system: tryptase; set-up: method as in PMID 27434836; details: selectivity; cited from earlier work
[8] = system: neutrophil elastase; set-up: method as in PMID 27434836; details: selectivity; cited from earlier work
[9] = system: kallikrein 5; set-up: method as in PMID 27434836; details: selectivity; cited from earlier work
[10] = biological target: T3, urokinase (Homo sapiens, UniProt P00749); set-up: method as in PMID 27434836; details: competitive and reversible inhibitor; cited from earlier work
T3 construct: purchased Sigma (Schnelldorf, Germany)

[11] = biological target: T2, plasmin; set-up: method as in PMID 27434836; details: competitive and reversible inhibitor; cited from earlier work
[12] = system: face wrinkles; set-up: method as in PMID 19570099; details: oil-in-water cream twice daily for 8 and 12 weeks; cited from earlier work
[13] = set-up: method as in PMID 25143811; details: stratum corneum, epidermis, dermis; cited from earlier work
[14] = system: collagen synthesis; set-up: method as in PMID 19268583; details: cited from earlier work
[15] = system: human dermal fibroblasts; set-up: method as in PMID 23320752; details: cited from earlier work
[16] = system: Fibroblasts; test: Collagen biosynthesis, 5[3H]-proline incorporation in fibroblasts; assay type: cell-based, Human; details: 24 h, ± 2
Method: In collagen biosynthesis assays cells were counted in a haemocytometer and incorporation of a radioactive precursor 5[^3H]-proline into collagen was measured. Total protein synthesis was calculated from the sum of radioactivity of collagenase-resistant proteins and collagen digest.
Fibroblasts were cultured in six-well plates until confluence. Then they were incubated for 24 h in growth medium in the absence or presence of the tested peptides and 5[^3H]-proline (5 µCi/mL, 28 Ci/mM). The final peptide concentrations were: 10 μM, 50 μM and 100 μM. In accordance with the method proposed by Peterkofsky and Diegelmann, incorporation of the radioactive precursor into collagen was determined by digesting the proteins with purified Clostridium histolyticum collagenase. Finally, the monolayers were washed with sterile 10mM PBS, pH 7.4 four times, and cell membranes were disrupted using a sonicator. Aliquots of the cell homogenate were removed for protein measurement using the BCA™ Protein Assay Kit (Pierce, Waltham, MA USA). The results are shown as combined values for cell plus medium fractions.

[17] = system: fibroblast cells; test: DNA biosynthesis, [3H] thymidine incorporation in fibroblasts; assay type: cell-based, Human; details: for DNA biosynthesis: 24 h, ± 2
Method: In the radioactive method of DNA measurement in the liquid sample, the radioactive activity of the sample was measured. This technique involves mixing a radioactive material with a scintillation fluid/liquid (which contains a scintillator), resulting in photon emission. This emission is counted by a suitable detector.
To examine the effect of the studied compounds on DNA biosynthesis of fibroblast cells, they were plated in 24-well tissue culture dishes at 1 × 10^5 cells per well with 1 mL of growth medium. The plates were incubated after 48 h with the examined peptides and 0.5 μCi of [^3H] thymidine (6.7 Ci/mmol) at 37 °C. The final peptide concentrations were: 10 μM, 50 μM, and 100 μM. After 24 h incubation, the cells were rinsed with PBS three times and twice with 5% trichloroacetic acid. To measure the radioactivity incorporated into DNA, the cells were solubilized with 1 mL of 0.1 M sodium hydroxide containing 1% SDS and an addition of scintillation liquid (9 mL) (https://www.perkinelmer.com/pl/category/scintillation-cocktails). Radioactivity was determined in a scintillation counter, i.e., Liquid Scintillation Analyzer Tri-Carb 2810 TR (Perkin Elmer, Waltham, MA USA)) with Quanto Smart TM software (Perkin Elmer).

[18] = biological target: T3, urokinase; test: Amidolytic activity of urokinase (chromogenic substrate pyro-Glu-Gly-Arg-pNA); assay type: biochemical; details: amidolytic activity; Tris pH 8.8, 37 °C; IC50 by extrapolation using a linear plot; error 5%; read-out: IC50 Urokinase
Method: as §4, §5

[19] = amidolytic activity, Tris pH 7.4, 37 °C, IC50 by extrapolation using a linear plot, error 5%, read-out: IC50 Plasmin

T2 sequence (P00747 581-810 limits assumed): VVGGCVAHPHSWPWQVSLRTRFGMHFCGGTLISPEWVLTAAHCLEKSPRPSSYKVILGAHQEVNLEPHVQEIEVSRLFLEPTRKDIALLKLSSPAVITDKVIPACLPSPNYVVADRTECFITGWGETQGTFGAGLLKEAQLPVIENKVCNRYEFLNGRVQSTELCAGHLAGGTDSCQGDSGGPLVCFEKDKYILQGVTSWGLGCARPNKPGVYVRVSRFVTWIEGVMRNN
T2 sequence (P00747 97-580 partner limits assumed): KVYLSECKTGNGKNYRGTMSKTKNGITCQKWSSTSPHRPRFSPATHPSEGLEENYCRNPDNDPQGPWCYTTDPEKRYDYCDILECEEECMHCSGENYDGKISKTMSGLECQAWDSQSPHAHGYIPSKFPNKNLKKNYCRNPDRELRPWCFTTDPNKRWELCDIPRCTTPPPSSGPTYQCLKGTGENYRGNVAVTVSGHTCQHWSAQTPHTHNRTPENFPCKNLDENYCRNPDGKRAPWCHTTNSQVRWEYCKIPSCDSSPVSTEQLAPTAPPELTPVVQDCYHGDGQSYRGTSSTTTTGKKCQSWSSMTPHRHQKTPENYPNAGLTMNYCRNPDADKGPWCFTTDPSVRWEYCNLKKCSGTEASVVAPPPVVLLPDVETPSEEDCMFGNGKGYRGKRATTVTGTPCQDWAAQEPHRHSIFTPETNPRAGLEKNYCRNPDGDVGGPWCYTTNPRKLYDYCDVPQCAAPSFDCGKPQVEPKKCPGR

For C[C@@H](O)[C@H](NC(=O)[C@H](CCCCN)NC(=O)CCCCC1CCSS1)C(=O)N[C@H](C(=O)N[C@@H](CCCCN)C(=O)N[C@@H](CO)C(=O)O)[C@@H](C)O (mixture of isomers) [Peptide 3, Lip-Lys-Thr-Thr-Lys-Ser-OH], the “increase of collagen biosynthesis” value [1] is given as “over 150%”, the viability at 24 h, 1 µmol/L [2] is given as 94% and the viability at 24 h, 10 µmol/L [2] is given as 81%. For the same compound, the viability at 24 h, 100 µmol/L [2] was 81%, the “cytotoxicity / cell growth effect on fibroblasts” value (“cytotoxicity / cell growth effect” for short) [3] was “did not exhibit fibroblast growth” and the IC50 [4] was 12800 ± 640 µM. For the same compound, the IC50 [5, 19] was 470 ± 23 µM.

In the case of N=C(N)c1ccc(CNC(=O)C(CCc2ccccc2)NC(=O)[C@@H](CO)NS(=O)(=O)Cc2ccccc2)cc1 (stereo partly drawn) [BSFAB, benzylsulfonyl-D-Ser-homoPhe-(4-amidinobenzylamide)], the “inhibition of kallikrein 7” value [6] is given as “did not inhibit”, the inhibition of tryptase [7] is given as “did not inhibit” and the “inhibition of neutrophil elastase” value [8] is given as “did not inhibit”. For the same compound, the “inhibition of kallikrein 5” value [9] was “did not inhibit”, the Ki [10] was 0.025 µM and the Ki [11] was 0.029 µM.

For CCCCCCCCCCCCCCCC(=O)N[C@@H](CCCCN)C(=O)N[C@H](C(=O)N[C@H](C(=O)N[C@@H](CCCCN)C(=O)N[C@@H](CO)C(=O)O)[C@@H](C)O)[C@@H](C)O [Peptide 4, Pal-Lys-Thr-Thr-Lys-Ser-OH, reference compound] (HELM PEPTIDE1{[CCCCCCCCCCCCCCCC(=O)[*:2]].K.T.T.K.S}$$$$V2.0), the “length of wrinkles, age spots, skin texture versus placebo cream” value [12] is given as “markedly improved”, the “retention in skin layers” value [13] is given as “retained in different skin layers” and the viability at 24 h, 1 µmol/L [2] is given as 97%. For the same compound, the viability at 24 h, 10 µmol/L [2] was 91%, the viability at 24 h, 100 µmol/L [2] was 85% and the “cytotoxicity / cell growth effect” value [3] was “did not exhibit fibroblast growth”. For the same compound, the “increase of collagen synthesis” value [14] was “over 150%” and the collagen production [15] was “stimulates collagen production in a concentration-dependent manner”.

For “Ac-RTTKS-OH [Peptide 26, Ac-Arg-Thr-Thr-Lys-Ser-OH]”, the Collagen biosynthesis ([16]; 10 µmol/L) was 166 % of Control, the Collagen biosynthesis ([16]; 50 µmol/L) was 77 % of Control and the Collagen biosynthesis ([16]; 100 µmol/L) was 108 % of Control. For the same compound, the viability at 24 h, 1 µmol/L [2] was 112%, the viability at 24 h, 10 µmol/L [2] was 137% and the viability at 24 h, 100 µmol/L [2] was 150%. For the same compound, the “cytotoxicity / cell growth effect” value [3] was “exhibited cell growth effects; also recorded: showed proliferative effect; also recorded: exhibited the effect of cell growth”, the DNA biosynthesis ([17]; 10 µmol/L) was 126 % of Control and the DNA biosynthesis ([17]; 50 µmol/L) was 112 % of Control. The DNA biosynthesis ([17]; 100 µmol/L) was 128 % of Control, the “DNA synthesis” value ([17]; 10, 50, 100 μM) was “increased DNA synthesis was observed at all concentrations” and the IC50 [4] was 810 ± 41 µM. The IC50 [5, 19] was 5450 ± 270 µM and the IC50 [18] was 2360 ± 120 µM.

With “H-KTTKS-OH [Peptide 1, H-Lys-Thr-Thr-Lys-Ser-OH, reference compound]” the viability at 24 h, 1 µmol/L [2] was 95%, the viability at 24 h, 10 µmol/L [2] was 82% and the viability at 24 h, 100 µmol/L [2] was 80%. For the same compound, the “cytotoxicity / cell growth effect” value [3] was “did not exhibit fibroblast growth”, the “increase of collagen synthesis” value [14] was “no such effect” and the IC50 [4] was 7810 ± 390 µM. The IC50 [5, 19] was 280 ± 14 µM.

In the case of “H-KTTRS-NH2 [Peptide 13, H-Lys-Thr-Thr-Arg-Ser-NH2]”, the Collagen biosynthesis ([16]; 50 µmol/L) is reported as 155 % of Control, the Collagen biosynthesis ([16]; 100 µmol/L) is reported as 49 % of Control and the viability at 24 h, 1 µmol/L [2] is reported as 121%. For the same compound, the viability at 24 h, 10 µmol/L [2] was 139%, the viability at 24 h, 100 µmol/L [2] was 145% and the “cytotoxicity / cell growth effect” value [3] was “exhibited cell growth effects; also recorded: showed proliferative effect; also recorded: exhibited the effect of cell growth”. For the same compound, the DNA biosynthesis ([17]; 10 µmol/L) was 84 % of Control, the DNA biosynthesis ([17]; 50 µmol/L) was 86 % of Control and the DNA biosynthesis ([17]; 100 µmol/L) was 74 % of Control. It also gave an IC50 [4] of 4650 ± 233 µM, an IC50 [5, 19] of 720 ± 36 µM and an IC50 ([5]; converted from IC50 of Table 1, read-out: -logIC50 Plasmin (converted)) of 708 µM. It also gave an IC50 [18] of 17600 ± 880 µM.

Reference: article PMC6832239, “The Effects of a Novel Series of KTTKS Analogues on Cytotoxicity and Proteolytic Activity” (Molecules, 2019)
